Source: patent US20200055891A1, “NOVEL PHOSPHOTRIAZOLE MRNA 5'-END CAP ANALOGS, COMPOSITION COMPRISING THE SAME, RNA MOLECULE INCORPORATING THE SAME, USES THEREOF AND METHOD OF SYNTHESIZING RNA MOLECULE, PROTEIN OR PEPTIDE” (UNIWERSYTET WARSZAWSKI, priority 2016, published 2020)
Where a name gives a salt, the structure may show the parent alone.

Assays:
[1] = molecular target: T1, SP6 RNA polymerase (Enterobacteria phage SP6, UniProt P06221); assay: Capping efficiency: incorporation of cap analogues at the 5′ end of short transcripts by in vitro transcription; assay type: biochemical; settings: 1.25 mM cap analogue, 0.125 mM GTP
T1 construct: purchased New England BioLabs
T1 sequence (P06221 1-874): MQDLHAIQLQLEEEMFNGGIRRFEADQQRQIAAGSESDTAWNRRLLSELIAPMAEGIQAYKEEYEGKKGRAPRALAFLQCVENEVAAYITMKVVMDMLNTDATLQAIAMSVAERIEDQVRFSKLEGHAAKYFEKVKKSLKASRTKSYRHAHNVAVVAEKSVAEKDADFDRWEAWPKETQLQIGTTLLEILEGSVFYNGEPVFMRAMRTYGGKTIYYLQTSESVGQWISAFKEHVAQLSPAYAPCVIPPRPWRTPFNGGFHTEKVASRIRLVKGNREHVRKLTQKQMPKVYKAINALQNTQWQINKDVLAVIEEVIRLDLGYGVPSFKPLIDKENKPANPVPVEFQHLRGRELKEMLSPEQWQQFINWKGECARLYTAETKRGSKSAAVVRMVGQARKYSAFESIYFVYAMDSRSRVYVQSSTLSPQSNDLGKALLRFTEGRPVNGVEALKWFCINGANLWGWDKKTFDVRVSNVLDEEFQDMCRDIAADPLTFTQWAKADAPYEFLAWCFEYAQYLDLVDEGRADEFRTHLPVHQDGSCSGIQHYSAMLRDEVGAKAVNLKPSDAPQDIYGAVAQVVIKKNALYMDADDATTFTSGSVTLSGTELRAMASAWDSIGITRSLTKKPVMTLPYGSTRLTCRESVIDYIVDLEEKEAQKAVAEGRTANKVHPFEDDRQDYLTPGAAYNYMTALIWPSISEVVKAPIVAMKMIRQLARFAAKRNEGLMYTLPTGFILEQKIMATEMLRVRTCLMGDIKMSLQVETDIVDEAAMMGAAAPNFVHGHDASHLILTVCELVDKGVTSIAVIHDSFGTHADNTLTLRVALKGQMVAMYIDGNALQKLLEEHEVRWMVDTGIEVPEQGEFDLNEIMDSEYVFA
Protocol: Prior to in vitro transcription annealing of a template was performed. DNA1 (SEQ ID NO: 1) and DNA2 (SEQ ID NO: 2) (20 μM each) were incubated in the presence of 4 mM Tris-HCl pH 8.0, 15 mM NaCl and 0.1 mM EDTA at 95° C. for 2 min and then at room temperature for 30 min. After 10-fold dilution the mixture was directly used for in vitro transcription.
The reaction was quenched by addition of 2 μl of 0.5 M EDTA pH 8.0 and purified with RNA Clean&Concentrator-5 kit (Zymo Research) to afford capped RNA1 (SEQ ID NO: 4) strands.
To reduce heterogeneity, each capped RNA1 (11.42 ng/μl, ca. 1 μM) was incubated in presence of 50 mM Tris-HCl pH 8.0, 50 mM MgCl2, RiboLock RNase Inhibitor (ThermoFisher Scientific) (2.0 U/μl) and DNA3 (SEQ ID NO: 3) (1 μM) at 37° C. for 1 h to afford RNA2 (SEQ ID NO: 5).^44 The reaction was stopped by freezing in liquid nitrogen and directly analyzed by PAGE (FIG. 3).
Relative bands intensity was determined using CLIQS v1.0 program.

[2] = test system: Rabbit Reticulocyte Lysate; assay: Translation efficiency of capped firefly luciferase mRNA in Rabbit Reticulocyte Lysate System; assay type: biochemical; settings: relative, m^7GpppG = 1
Protocol: The reaction was quenched by addition of 2 μl of 0.5 M EDTA pH 8.0 and purified with NucleoSpin RNA Clean-up XS kit (Macherey-Nagel) to afford luciferase-coding RNA strands capped with appropriate cap analogue.
For each capped luciferase-coding RNA four diluted solutions were prepared—3.0 ng/μl, 1.5 ng/μl, 0.75 ng/μl, 0.375 ng/μl. Translation studies were performed using Rabbit Reticulocyte Lysate System (Promega). 9 μl of a mixture containing Rabbit Reticulocyte Lysate (4 μl), Amino Acid Mixture Minus Leucine (0.05 μl of 1 mM solution), Amino Acid Mixture Minus Methionine (0.05 μl of 1 mM solution), potassium acetate (1.9 μl of 1 M solution), MgCl2 (0.4 μl of 25 mM solution) and 2.1 μl of water was incubated at 30° C. for 1 h after which 1 μl of appropriate luciferase-coding RNA solution was added and incubation of the reaction was continued at 37° C. for another hour. The reaction was stopped by freezing in liquid nitrogen.
Translation efficiency was determined using Luciferase Reporter System (Promega). The samples were defrosted just before the experiment. To every sample 50 μl of Luciferase Assay Reagent was added just before measurement of luminescence on Synergy H1 Microplate Reader (Bio Tek). The measurement were performed for every four samples independently due to low stability of luminescence signal. The results are presented on. FIG. 4 as proportions between regression coefficients of linear relationships between capped luciferase-coding RNA concentration in translation reaction (300 pg/μl, 150 pg/μl, 75 pg/μl, 37.5 pg/μl) and corresponding luminescence signal.

[3] = Hydrolysis in D2O seen in NMR spectra; assay type: physicochemical; settings: dissolved in D2O just before NMR measurement; given if higher than 5%
Protocol: Some cap analogues hydrolyzed in D2O gradually. Although pure compounds (see HPLC profiles, Supporting Information 2) were dissolved in D2O just before measurements, the spectra indicated some level of hydrolysis. % of hydrolysis is provided along with compound characterization data, if higher than 5%.

[4] = Stability studies in buffers pH 3-9, RP HPLC; assay type: physicochemical; settings: room temperature; for % of remaining cap, Bufor pH 7, 4 h / % of remaining cap, Bufor pH 7, 24 h: 0.1 M HEPES pH 7.0, 20 μM; for % of remaining cap, Bufor pH 5, 4 h / % of remaining cap, Bufor pH 5, 24 h: 0.1 M acetate buffer pH 5.0, 20 μM; for % of remaining cap, Bufor pH 9, 4 h / % of remaining cap, Bufor pH 9, 24 h: 0.1 M borate buffer pH 9.0, 20 μM; for % of remaining cap, Bufor pH 3, 4 h / % of remaining cap, Bufor pH 3, 24 h: 0.1 M formate buffer pH 3.0, 20 μM
Protocol: Analogues m2^7,2′-OGppp-triazole-C2H4NHppG, m2^7,2′-OGppp-triazole-C2H4OppG, m2^7,2′-OGppp-triazole-C2H4OpG, m2^7,2′-OGpp-triazole-C2H4OppG were incubated in sealed vials at 20 μM and at room temperature in four different buffers: 0.1 M formate buffer pH 3.0, 0.1 M acetate buffer pH 5.0, 0.1 M HEPES pH 7.0 and 0.1 M borate buffer pH 9.0. […] The starting compound peak area was determined for each time-point and % of remaining cap was calculated in reference to the time-point 0 h.

Row | Compound | Capping efficiency [1] | Translation efficiency [2] | hydrolysis in D2O [3] | % of remaining cap, Bufor pH 7, 4 h [4] | % of remaining cap, Bufor pH 7, 24 h [4] | % of remaining cap, Bufor pH 5, 4 h [4] | % of remaining cap, Bufor pH 5, 24 h [4] | % of remaining cap, Bufor pH 9, 4 h [4] | % of remaining cap, Bufor pH 9, 24 h [4] | % of remaining cap, Bufor pH 3, 4 h [4] | % of remaining cap, Bufor pH 3, 24 h [4]
1 | C[n+]1cn([C@@H]2O[C@H](COP(=O)(O)NCCn3cc(CP(=O)(O)OP(=O)([O-])OC[C@H]4O[C@@H](n5cnc6c(=O)[nH]c(N)nc65)C(O)C4O)nn3)C(O)C2O)c2nc(N)[nH]c(=O)c21 (stereo partly shown) [m^7GpNHC2H4tCH2ppG, m^7GpNHC2H4-triazole-CH2ppG] | 47% | 0.085 ± 0.017 | 11% |  |  |  |  |  |  |  | 
2 | COC1C(O)[C@@H](COP(=O)(O)OP(=O)(O)OP(=O)([O-])c2cn(CCNP(=O)(O)OP(=O)(O)OC[C@H]3O[C@@H](n4cnc5c(=O)[nH]c(N)nc54)C(O)C3O)nn2)O[C@H]1n1c[n+](C)c2c(=O)[nH]c(N)nc21 (stereo partly shown) [m2^7,2′-OGppptC2H4NHppG, m2^7,2′-OGppp-triazole-C2H4NHppG] | 43.0% | 2.226 ± 0.399 |  | 0% | 0% | 0% | 0% | 0.5% | 3.0% | 19.0% | 72.9%
3 | Nc1nc2c(ncn2[C@@H]2O[C@H](COP(=O)(O)OP(=O)(O)OP(=O)(O)OC[C@H]3O[C@@H](n4cnc5c(=O)[nH]c(N)nc54)[C@H](O)[C@@H]3O)[C@@H](O)[C@H]2O)c(=O)[nH]1 [GpppG, reference compound] | 92% | 0.058 ± 0.008 |  |  |  |  |  |  |  |  | 
4 | COC1C(O)[C@@H](COP(=O)(O)OP(=O)(O)OP(=O)([O-])c2cn(CCOP(=O)(O)OC[C@H]3O[C@@H](n4cnc5c(=O)[nH]c(N)nc54)C(O)C3O)nn2)O[C@H]1n1c[n+](C)c2c(=O)[nH]c(N)nc21 (stereo partly shown) [m2^7,2′-OGppptC2H4OpG, m2^7,2′-OGppp-triazole-C2H4OpG] | 47.6% | 2.773 ± 0.293 |  | 0% | 0% | 0% | 0% | 0.1% | 1.2% | 0% | 0%
5 | C[n+]1cn([C@@H]2O[C@H](COP(=O)([O-])OP(=O)(O)NCCn3cc(CCP(=O)(O)OP(=O)(O)OC[C@H]4O[C@@H](n5cnc6c(=O)[nH]c(N)nc65)[C@@H](O)C4O)nn3)C(O)[C@@H]2O)c2nc(N)[nH]c(=O)c21 (stereo partly shown) [m^7GppNHC2H4tC2H4ppG, m^7GppNHC2H4-triazole-C2H4ppG] | 30% | 0.239 ± 0.028 | 11% |  |  |  |  |  |  |  | 
6 | C[n+]1cn([C@@H]2O[C@H](COP(=O)(O)OP(=O)([O-])c3cn(CCNP(=O)(O)OC[C@H]4O[C@@H](n5cnc6c(=O)[nH]c(N)nc65)C(O)C4O)nn3)C(O)C2O)c2nc(N)[nH]c(=O)c21 (stereo partly shown) [m^7GpptC2H4NHpG, m^7Gpp-triazole-C2H4NHpG] | 56.8% | 0.50 ± 0.06 |  |  |  |  |  |  |  |  | 
7 | C[n+]1cn([C@@H]2O[C@H](COP(=O)(O)OP(=O)(O)CCc3cn(CCNP(=O)(O)OP(=O)([O-])OC[C@H]4O[C@@H](n5cnc6c(=O)[nH]c(N)nc65)[C@@H](O)C4O)nn3)[C@H](O)C2O)c2nc(N)[nH]c(=O)c21 (stereo partly shown) [m^7GppC2H4tC2H4NHppG, m^7GppC2H4-triazole-C2H4NHppG] | 48.8% | 0.085 ± 0.017 | 10% |  |  |  |  |  |  |  | 
8 | C[n+]1cn([C@@H]2O[C@H](COP(=O)(O)NCCn3cc(P(=O)([O-])OP(=O)(O)OC[C@H]4O[C@@H](n5cnc6c(=O)[nH]c(N)nc65)C(O)C4O)nn3)C(O)C2O)c2nc(N)[nH]c(=O)c21 (stereo partly shown) [m^7GpNHC2H4tppG, m^7GpNHC2H4-triazole-ppG] | 57% | 0.075 ± 0.009 | 14% |  |  |  |  |  |  |  | 
9 | COC1C(O)[C@@H](COP(=O)(O)OP(=O)([O-])c2cn(CCOP(=O)(O)OP(=O)(O)OC[C@H]3O[C@@H](n4cnc5c(=O)[nH]c(N)nc54)C(O)C3O)nn2)O[C@H]1n1c[n+](C)c2c(=O)[nH]c(N)nc21 (stereo partly shown) [m2^7,2′-OGpptC2H4OppG, m2^7,2′-OGpp-triazole-C2H4OppG] | 44.2% | 1.675 ± 0.168 |  |  |  |  |  |  |  |  | 
10 | m2^7,2′-OGppp-triazole-C2H4NHpG [m2^7,2′-OGppptC2H4NHpG] | 41% | 1.462 ± 0.182 | 8% |  |  |  |  |  |  |  | 
11 | [N-]=[N+]=NCCNP(=O)(O)OP(=O)(O)OC[C@H]1O[C@@H](n2cnc3c(=O)[nH]c(N)nc32)[C@H](O)[C@@H]1O [GppNHC2H4N3, N-(2-azidoethyl) β-phosphoramidate guanosine diphosphate ammonium salt] |  |  | 15% |  |  |  |  |  |  |  | 
12 | C[n+]1cn([C@@H]2O[C@H](COP(=O)([O-])OP(=O)(O)Cc3cn(CCNP(=O)(O)OC[C@H]4O[C@@H](n5cnc6c(=O)[nH]c(N)nc65)C(O)C4O)nn3)C(O)C2O)c2nc(N)[nH]c(=O)c21 (stereo partly shown) [m^7GppCH2tC2H4NHpG, m^7GppCH2-triazole-C2H4NHpG] | 54% | 0.155 ± 0.019 |  |  |  |  |  |  |  |  | 
13 | COC1C(O)[C@@H](COP(=O)(O)OP(=O)(O)OP(=O)([O-])c2cn(CCOP(=O)(O)OP(=O)(O)OC[C@H]3O[C@@H](n4cnc5c(=O)[nH]c(N)nc54)C(O)C3O)nn2)O[C@H]1n1c[n+](C)c2c(=O)[nH]c(N)nc21 (stereo partly shown) [m2^7,2′-OGppptC2H4OppG, m2^7,2′-OGppp-triazole-C2H4OppG] | 38.0% | 1.749 ± 0.263 |  | 0% | 0% | 0% | 0% |  |  | 0% | 0%
